Experimental findings from patent US5082943A, “Novel imidazole derivatives” (Nippon Chemiphar Co., Ltd., priority 1988, dated 1992) are described below.

For series [1], the target named is T1, H^+ +K^+ ATPase (Sus scrofa, UniProt P19156).
T1 construct: Gastric acid secretory cells of a pig gastric mucosa were isolated; from tissue; host or cells: pig gastric mucosa, vesicles from gastric acid secretory cells (Ficoll density gradient)
The series can be described thus: H+ + K+ ATPase inhibitory effects (b) pig gastric mucosa. To be noted: pig gastric mucosa vesicle; incubated 37° C., 30 min, pH 5.5; read-out: H+ + K+ ATPase inhibitory action (IC50). The format is biochemical. On the procedure:
Gastric acid secretory cells of a pig gastric mucosa were isolated in the same manner as in the test for rabbit gastric mucosa. A vesicle containing H^+ +K^+ ATPase was prepared by centrifuging the cells in Ficoll of discontinuous density gradient. The enzyme and each test compound were incubated at 37° C. for 30 min. in a solution which contained 2 mM of a bisTRIS-acetate buffer (pH 5.5). To the resulting mixture were added a solution of 37.5 mM of bisTRIS-acetate buffer solution (pH 7.4), 2 mM of magnesium chloride, 2 mM of ATP and 5 mM of potassium chloride, and the mixture was then heated to 37° C. for 10 min. for performing a reaction. The reaction was terminated by addition of 5% trichloroacetic acid solution, and an inorganic phosphorus liberated was quantitatively measured by Fiske-Subbarow method. The ATPase activity was determined from the obtained inorganic phosphorus value.
(§1) The above procedure was repeated except for not using potassium chloride to determine an ATPase activity in the absence of potassium chloride.
The desired […] ATPase activity was calculated by subtracting the ATPase activity value determined in the absence of KCl from the ATPase activity value determined in the presence of KCl.

Series [2] has as its system secretion of gastric acid. Put plainly: Inhibitory action against the secretion of gastric acid (Test II), Heidenhain pouch dogs, histamine stimulated. It counts as in vivo, male beagle dogs. The following applies: Canis lupus familiaris, Heidenhain pouch dog, histamine 160 ug/kg/hr, intravenous, read-out: Suppresive action on secretion of gastric acid (%). On the procedure:
Heidenhain pouch dogs produced from male beagle dogs were fasted. To the dogs were then administered intarvenously histamine hydrochloride (gastric juice secretion inducing agent) continuously at a dose of 160 ug/kg/hr. The gastric juice was collected at an interval of 15 min. to measure the amount of gastric juice and acid output to determine an acid secretion amount (mEq/15 min).
The test compound was intravenously administered to the dogs at one hour after the initiation of histamine administration.
The inhibitory action was determined by comparing the acid secretion amount, with the corresponding amount of a control dog prepared in the same manner except that a vehicle alone was administered.

For series [3], the target named is T2, H^+ +K^+ ATPase (Oryctolagus cuniculus, UniProt P27112).
T2 construct: gastric acid secretory cells of a rabbit gastric mucosa were isolated; from tissue; host or cells: rabbit gastric mucosa, vesicles from gastric acid secretory cells (Ficoll density gradient)
T2 sequence (P27112 2-1035 limits assumed): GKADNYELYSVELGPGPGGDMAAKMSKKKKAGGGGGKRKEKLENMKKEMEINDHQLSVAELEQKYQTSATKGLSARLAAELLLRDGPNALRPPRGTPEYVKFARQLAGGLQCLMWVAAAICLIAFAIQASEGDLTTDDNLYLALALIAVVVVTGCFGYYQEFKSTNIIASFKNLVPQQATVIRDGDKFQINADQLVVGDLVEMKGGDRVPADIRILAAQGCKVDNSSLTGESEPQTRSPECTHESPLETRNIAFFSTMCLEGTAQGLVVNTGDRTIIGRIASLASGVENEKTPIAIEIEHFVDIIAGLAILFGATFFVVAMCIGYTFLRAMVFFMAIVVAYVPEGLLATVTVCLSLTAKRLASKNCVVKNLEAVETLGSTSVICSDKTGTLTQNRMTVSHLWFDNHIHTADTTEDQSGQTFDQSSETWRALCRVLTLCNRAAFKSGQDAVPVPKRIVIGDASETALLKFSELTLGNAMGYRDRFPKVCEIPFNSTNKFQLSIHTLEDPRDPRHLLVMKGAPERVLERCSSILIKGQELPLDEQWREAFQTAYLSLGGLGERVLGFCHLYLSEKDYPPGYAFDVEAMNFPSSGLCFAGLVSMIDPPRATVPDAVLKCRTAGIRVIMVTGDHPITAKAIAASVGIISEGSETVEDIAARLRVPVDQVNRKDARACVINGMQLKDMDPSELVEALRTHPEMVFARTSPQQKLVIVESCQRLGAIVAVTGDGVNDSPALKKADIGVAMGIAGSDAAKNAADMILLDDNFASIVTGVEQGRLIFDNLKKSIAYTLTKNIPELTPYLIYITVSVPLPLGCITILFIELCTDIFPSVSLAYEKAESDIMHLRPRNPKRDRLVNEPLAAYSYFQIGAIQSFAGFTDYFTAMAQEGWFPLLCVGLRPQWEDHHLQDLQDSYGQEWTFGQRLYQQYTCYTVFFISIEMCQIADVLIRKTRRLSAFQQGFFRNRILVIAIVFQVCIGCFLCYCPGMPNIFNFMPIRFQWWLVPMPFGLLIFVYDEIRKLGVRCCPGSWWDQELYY
T2 sequence (P18597 whole entry partner): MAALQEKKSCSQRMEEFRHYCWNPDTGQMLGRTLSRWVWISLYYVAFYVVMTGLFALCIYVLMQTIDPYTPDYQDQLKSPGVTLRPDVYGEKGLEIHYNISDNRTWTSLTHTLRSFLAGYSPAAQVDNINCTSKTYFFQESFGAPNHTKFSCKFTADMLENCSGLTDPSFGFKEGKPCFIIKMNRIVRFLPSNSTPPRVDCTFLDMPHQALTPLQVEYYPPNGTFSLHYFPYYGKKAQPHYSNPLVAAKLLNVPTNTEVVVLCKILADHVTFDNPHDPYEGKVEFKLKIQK
Put plainly: H+ + K+ ATPase inhibitory effects (a) rabbit gastric mucosa. It counts as biochemical. The following applies: rabbit gastric mucosa vesicle; 2×10^-4 M test compound, pH 6.0, 25 min preincubation; read-out: H+ + K+ ATPase inhibitory action (%). As to the method: Following the method of Forte et al (J. Applied Physiol., 32, 714-717 (1972)), gastric acid secretory cells of a rabbit gastric mucosa were isolated. A vesicle containing H^+ +K^+ ATPase was prepared by centrifuging the cells in Ficoll of discontinuous density gradient. After the enzyme was incubated at room temperature for 25 min. in 0.5 ml of a solution which contained 5 mM of an imidazole buffer (pH 6.0) and 2×10^-4 M of each test compound, the mixture was heated to 37° C. The mixture was then allowed to stand for further 5 min. To the mixture was added 0.5 ml of a solution which contained 4 mM of magnesium chloride, 80 mM of an imidazole buffer (pH 7.4), 20 mM of potassium chloride and 4 mM of ATP. The resulting mixture was reacted at 37° C. for 15 min. and 1 ml of a 24% trichloroacetic acid was then added to terminate the reaction. The inorganic phosphorus liberated was quantitatively determined by the method proposed by Taussky and Shorr (J. Biol. Chem., 202, […] (1953)). The ATPase activity was determined from the obtained inorganic phosphorus value.
as §1
The desired K^+ -dependent ATPase activity was calculated by subtracting the ATPase activity value determined in the absence of KCl from the ATPase activity value determined in the presence of KC1.

In series [4] the test system is secretion of gastric acid. The series can be described thus: Inhibitory action against the secretion of gastric acid (Test I), pylorus ligated rats. The format is in vivo, Male Donryu rats. To be noted: rat, pylorus ligation, intraduodenal, 4 hours, acid output vs control. As to the method:
Male Donryu rats having a body weight of 200 to 250 g were fasted (while allowing free access to water) for 24 hrs. in accordance with the conventional method [Shay, H. et al, Gastroenterology, 5, 43-61 (1945)]. Under ether anesthesia the pylorus was ligated and each test compound was administered intraduodenally. Four hours later, each rat was killed and the stomach was removed to collect the gastric juice. The inhibitory action was determined by comparing the acid output which was determined by titration to pH 7.0 with 0.1-N NaOH by means of an automatic titrator, with the corresponding value of control rat prepared in the same manner except that a vehicle alone was administered.

Series [5] deals with rats. The series can be described thus: Acute toxicity test, rats. It counts as in vivo. The following applies: oral, 45 mg/kg/day for two weeks. As to the method:
(§2) 2-[(2-Isobutylamino)benzylsulfinyl]imidazole (Example No. 10) was orally administered to rats and beagle dogs at a dose of 45 mg/kg/day for two weeks.

Series [6] deals with beagle dogs. Put plainly: Acute toxicity test, beagle dogs. The format is in vivo. To be noted: oral, 45 mg/kg/day for two weeks. On the procedure:
as §2

SMILES strings stand for the structures.

T1 sequence (P19156 2-1034 limits assumed): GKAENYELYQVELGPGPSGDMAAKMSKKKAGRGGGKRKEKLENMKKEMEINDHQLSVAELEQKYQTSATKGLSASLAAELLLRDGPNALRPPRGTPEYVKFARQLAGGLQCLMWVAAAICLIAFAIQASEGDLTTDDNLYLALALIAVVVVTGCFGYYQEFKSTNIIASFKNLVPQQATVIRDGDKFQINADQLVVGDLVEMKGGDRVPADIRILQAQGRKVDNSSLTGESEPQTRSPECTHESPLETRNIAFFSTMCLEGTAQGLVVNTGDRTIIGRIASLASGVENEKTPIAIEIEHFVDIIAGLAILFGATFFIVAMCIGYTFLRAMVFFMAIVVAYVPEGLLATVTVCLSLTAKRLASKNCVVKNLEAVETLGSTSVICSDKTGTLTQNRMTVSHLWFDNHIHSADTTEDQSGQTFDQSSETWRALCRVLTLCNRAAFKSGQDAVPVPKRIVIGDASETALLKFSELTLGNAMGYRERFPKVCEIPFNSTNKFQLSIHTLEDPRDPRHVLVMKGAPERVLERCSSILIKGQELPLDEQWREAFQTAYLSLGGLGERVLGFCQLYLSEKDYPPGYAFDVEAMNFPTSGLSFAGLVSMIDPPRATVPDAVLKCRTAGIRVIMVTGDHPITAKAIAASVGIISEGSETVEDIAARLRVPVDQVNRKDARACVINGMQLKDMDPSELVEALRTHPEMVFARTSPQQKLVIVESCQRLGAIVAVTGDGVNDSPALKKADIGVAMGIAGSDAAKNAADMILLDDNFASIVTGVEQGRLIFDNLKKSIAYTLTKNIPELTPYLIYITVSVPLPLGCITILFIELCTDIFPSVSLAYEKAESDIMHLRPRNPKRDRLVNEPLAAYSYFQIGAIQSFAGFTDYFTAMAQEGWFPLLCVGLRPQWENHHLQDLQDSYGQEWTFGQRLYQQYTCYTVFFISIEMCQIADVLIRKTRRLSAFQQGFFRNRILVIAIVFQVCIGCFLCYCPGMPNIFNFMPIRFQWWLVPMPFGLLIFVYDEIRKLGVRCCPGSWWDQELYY
T1 sequence (P18434 whole entry partner): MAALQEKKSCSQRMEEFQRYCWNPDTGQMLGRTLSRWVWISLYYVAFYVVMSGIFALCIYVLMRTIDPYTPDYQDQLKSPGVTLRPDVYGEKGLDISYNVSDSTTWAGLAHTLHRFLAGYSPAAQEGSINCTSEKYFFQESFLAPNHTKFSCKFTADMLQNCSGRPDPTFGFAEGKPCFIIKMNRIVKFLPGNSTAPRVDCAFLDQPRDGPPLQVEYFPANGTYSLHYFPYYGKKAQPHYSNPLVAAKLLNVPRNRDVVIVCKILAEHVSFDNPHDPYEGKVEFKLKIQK

With `CNc1ccccc1C[S+]([O-])c1nc2c([nH]1)CCCC2` (stereo not shown) [Example No. 2, 2-(2-methylaminobenzylsulfinyl)-4,5,6,7-tetrahydro-1H-benzimidazole], the IC50 in series [1] was 1800 nM. The inhibition in vivo at 3 mg/kg in series [2] is 53%.
For the compound `CNc1ccccc1C[S+]([O-])c1ncc[nH]1` (stereo not shown) [Example No. 8, 2-(2-methylaminobenzylsulfinyl)imidazole], the IC50 in series [1] stood at 2800 nM.
Regarding `CC(C)CNc1ccccc1CSc1ncc[nH]1` [Example No. 9, 2-[(2-isobutylamino)benzylthio]imidazole], the inhibition in vivo at 3 mg/kg in series [2] was found to be 11%.
On to `CC(C)CNc1ccccc1C[S+]([O-])c1ncc[nH]1` (stereo not shown) [Example No. 10, 2-[(2-isobutylamino)benzylsulfinyl]imidazole], for which the inhibition at 200 µM in series [3] came out at 97.2%. For the same compound, the “Suppresive action on secretion of gastric acid (%)” value (“Suppresive action … (%)” below) in series [4] (10 mg/kg) turned out to be 56.2%; in series [4] (30 mg/kg), 87.0%. Moreover, the inhibition in vivo at 3 mg/kg in series [2] was 81%. For the same compound, the “Acute toxicity: noticeable change” value in series [5] and in series [6] was “no noticeable change” throughout.
Regarding `CNc1ccc(C)cc1C[S+]([O-])c1ncc[nH]1` (stereo not shown) [Example No. 14, 2-[(5-methyl-2-methylamino)benzylsulfinyl]imidazole], the inhibition at 200 µM in series [3] came out at 90.8%. The “Suppresive action … (%)” value in series [4] (10 mg/kg) is on record as 82.2%; in series [4] (30 mg/kg), 98.6%. In series [2], the inhibition in vivo at 3 mg/kg was 97%.
On to `CC(C)Nc1ccccc1C[S+]([O-])c1ncc[nH]1` (stereo not shown) [Example No. 23, 2-[(2-isopropylamino)benzylsulfinyl]imidazole], for which, in series [2], the inhibition in vivo at 3 mg/kg stood at 66%.
For `CCNc1ccccc1C[S+]([O-])c1ncc[nH]1` (stereo not shown) [Example No. 25, 2-[(2-ethylamino)benzylsulfinyl]imidazole], the inhibition at 200 µM in series [3] came to 87.5%. Further, the “Suppresive action … (%)” value is 74.0% in series [4] (10 mg/kg) and 93.3% in series [4] (30 mg/kg). In addition, in series [2], the inhibition in vivo at 3 mg/kg came to 80%.
As to `[O-][S+](Cc1ccccc1NCc1ccccc1)c1ncc[nH]1` (stereo not shown) [Example No. 27, 2-[(2-benzylamino)benzylsulfinyl]imidazole], in series [2], the inhibition in vivo at 3 mg/kg turned out to be 57%.
Take `COc1ccc(NCC(C)C)c(C[S+]([O-])c2ncc[nH]2)c1` (stereo not shown) [Example No. 29, 2-[(2-isobutylamino-5-methoxy)benzylsulfinyl]imidazole]: the entries for the “Suppresive action … (%)” value in series [4] (10 mg/kg) and in series [4] (30 mg/kg) were 30.8% and 89.0%, respectively. Besides, the inhibition in vivo at 1 mg/kg in series [2] turned out to be 30%. In series [2], the inhibition in vivo at 3 mg/kg worked out at 81%.
Take `CNc1cccc(C)c1C[S+]([O-])c1ncc[nH]1` (stereo not shown) [Example No. 33, 2-[(2-methyl-6-methylamino)benzylsulfinyl]imidazole]: the entries for the “Suppresive action … (%)” value in series [4] (10 mg/kg) and in series [4] (30 mg/kg) were 92.9% and 91.4%, respectively. For the same compound, in series [2], the inhibition in vivo at 1 mg/kg was determined as 70%.
Regarding `CNc1ccccc1C[S+]([O-])c1nc(C)c[nH]1` (stereo not shown) [Example No. 37, 4-methyl-2-[(2-methylamino)benzylsulfinyl]imidazole], the inhibition in vivo at 3 mg/kg in series [2] amounted to 50%.
Regarding `COc1cccc(NCC(C)C)c1C[S+]([O-])c1ncc[nH]1` (stereo not shown) [Example No. 41, 2-[(2-isobutylamino-6-methoxy)benzylsulfinyl]imidazole], in series [2], the inhibition in vivo at 1 mg/kg was 66% and the inhibition in vivo at 3 mg/kg amounted to 97%.
Consider `Cc1cccc(NCC(C)C)c1C[S+]([O-])c1ncc[nH]1` (stereo not shown) [Example No. 45, 2-[(2-isobutylamino-6-methyl)benzylsulfinyl]imidazole], for which the “Suppresive action … (%)” value in series [4] (10 mg/kg) amounted to 86.8%; in series [4] (30 mg/kg) it was 90.3%. In series [2], the inhibition in vivo at 1 mg/kg worked out at 82%.
On to `Cc1ccc(C[S+]([O-])c2ncc[nH]2)c(NCC(C)C)c1` (stereo not shown) [Example No. 47, 2-[(2-isobutylamino-4-methyl)benzylsulfinyl]imidazole], for which the inhibition in vivo at 1 mg/kg in series [2] is 87%.

By IC50 is commonly meant the concentration at which inhibition is half-maximal.
